Active and inactive are the calls of the source. No stated cut-off is given here; in the data, actives have a measured IC50 and inactives only a lower limit.
What was measured:
Format in all cases: functional
[1] = biological target: T1, Sentrin-specific protease 8 (Homo sapiens, UniProt Q96LD8); test: SENP8 protease inhibitors, SAR follow-up, biochemical, luminescence, set 2 (AID 588601)
T1 sequence (Q96LD8 whole entry): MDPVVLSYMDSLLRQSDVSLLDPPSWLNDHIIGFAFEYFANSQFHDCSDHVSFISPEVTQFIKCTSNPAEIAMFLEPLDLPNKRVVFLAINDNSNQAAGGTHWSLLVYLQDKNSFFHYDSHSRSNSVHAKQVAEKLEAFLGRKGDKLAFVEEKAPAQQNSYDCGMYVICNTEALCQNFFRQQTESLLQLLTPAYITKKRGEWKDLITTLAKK

Caspase-3 [2] = biological target: T2, Caspase-3 (Homo sapiens, UniProt P42574); test: caspase-3 inhibitors as off-family protease, SAR follow-up, selectivity assay for SENP protease inhibitor project, biochemical, luminescence, set 2 (AID 588599)
T2 sequence (P42574 whole entry): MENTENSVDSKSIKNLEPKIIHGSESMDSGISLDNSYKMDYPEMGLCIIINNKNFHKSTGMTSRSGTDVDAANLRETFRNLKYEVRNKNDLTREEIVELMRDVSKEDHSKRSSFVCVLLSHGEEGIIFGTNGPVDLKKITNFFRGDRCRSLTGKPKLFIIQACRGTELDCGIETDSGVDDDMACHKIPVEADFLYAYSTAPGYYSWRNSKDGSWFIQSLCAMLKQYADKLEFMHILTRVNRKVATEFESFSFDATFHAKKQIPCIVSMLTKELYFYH

[3] = biological target: T3, Sentrin-specific protease 7 (Homo sapiens, UniProt Q9BQF6); test: SENP7 protease inhibitors, SAR follow-up, biochemical, luminescence, set 2 (AID 588600)
T3 sequence (Q9BQF6 whole entry): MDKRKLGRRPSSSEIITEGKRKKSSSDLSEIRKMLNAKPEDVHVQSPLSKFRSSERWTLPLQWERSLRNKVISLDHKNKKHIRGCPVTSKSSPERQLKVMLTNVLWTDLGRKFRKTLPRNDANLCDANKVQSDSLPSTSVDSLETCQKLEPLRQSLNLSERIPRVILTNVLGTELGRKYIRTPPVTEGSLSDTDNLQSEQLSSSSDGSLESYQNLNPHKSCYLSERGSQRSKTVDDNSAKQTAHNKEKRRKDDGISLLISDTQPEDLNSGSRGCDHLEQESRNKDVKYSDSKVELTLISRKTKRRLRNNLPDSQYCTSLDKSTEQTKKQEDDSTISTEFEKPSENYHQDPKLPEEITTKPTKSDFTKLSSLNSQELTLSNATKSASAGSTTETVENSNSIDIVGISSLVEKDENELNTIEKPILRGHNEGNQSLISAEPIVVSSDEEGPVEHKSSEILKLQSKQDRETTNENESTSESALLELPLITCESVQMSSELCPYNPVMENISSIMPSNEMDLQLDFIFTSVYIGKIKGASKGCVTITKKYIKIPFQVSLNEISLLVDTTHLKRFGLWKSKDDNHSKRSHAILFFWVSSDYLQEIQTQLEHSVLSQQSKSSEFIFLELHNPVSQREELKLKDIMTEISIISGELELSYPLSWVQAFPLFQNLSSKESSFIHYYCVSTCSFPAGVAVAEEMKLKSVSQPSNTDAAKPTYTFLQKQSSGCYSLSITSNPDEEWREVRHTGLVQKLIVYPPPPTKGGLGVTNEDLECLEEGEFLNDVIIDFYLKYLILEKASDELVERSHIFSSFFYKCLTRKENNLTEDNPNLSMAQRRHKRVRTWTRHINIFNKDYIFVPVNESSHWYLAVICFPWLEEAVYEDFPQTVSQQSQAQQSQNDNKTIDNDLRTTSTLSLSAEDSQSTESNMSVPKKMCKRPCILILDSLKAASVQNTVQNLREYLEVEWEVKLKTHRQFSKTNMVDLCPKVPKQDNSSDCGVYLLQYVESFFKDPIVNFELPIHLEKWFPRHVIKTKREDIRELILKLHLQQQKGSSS

[4] = biological target: T4, Sentrin-specific protease 6 (Homo sapiens, UniProt Q9GZR1); test: SENP6 protease inhibitors, SAR follow-up, biochemical, luminescence, set 2 (AID 588598)
T4 sequence (Q9GZR1 whole entry): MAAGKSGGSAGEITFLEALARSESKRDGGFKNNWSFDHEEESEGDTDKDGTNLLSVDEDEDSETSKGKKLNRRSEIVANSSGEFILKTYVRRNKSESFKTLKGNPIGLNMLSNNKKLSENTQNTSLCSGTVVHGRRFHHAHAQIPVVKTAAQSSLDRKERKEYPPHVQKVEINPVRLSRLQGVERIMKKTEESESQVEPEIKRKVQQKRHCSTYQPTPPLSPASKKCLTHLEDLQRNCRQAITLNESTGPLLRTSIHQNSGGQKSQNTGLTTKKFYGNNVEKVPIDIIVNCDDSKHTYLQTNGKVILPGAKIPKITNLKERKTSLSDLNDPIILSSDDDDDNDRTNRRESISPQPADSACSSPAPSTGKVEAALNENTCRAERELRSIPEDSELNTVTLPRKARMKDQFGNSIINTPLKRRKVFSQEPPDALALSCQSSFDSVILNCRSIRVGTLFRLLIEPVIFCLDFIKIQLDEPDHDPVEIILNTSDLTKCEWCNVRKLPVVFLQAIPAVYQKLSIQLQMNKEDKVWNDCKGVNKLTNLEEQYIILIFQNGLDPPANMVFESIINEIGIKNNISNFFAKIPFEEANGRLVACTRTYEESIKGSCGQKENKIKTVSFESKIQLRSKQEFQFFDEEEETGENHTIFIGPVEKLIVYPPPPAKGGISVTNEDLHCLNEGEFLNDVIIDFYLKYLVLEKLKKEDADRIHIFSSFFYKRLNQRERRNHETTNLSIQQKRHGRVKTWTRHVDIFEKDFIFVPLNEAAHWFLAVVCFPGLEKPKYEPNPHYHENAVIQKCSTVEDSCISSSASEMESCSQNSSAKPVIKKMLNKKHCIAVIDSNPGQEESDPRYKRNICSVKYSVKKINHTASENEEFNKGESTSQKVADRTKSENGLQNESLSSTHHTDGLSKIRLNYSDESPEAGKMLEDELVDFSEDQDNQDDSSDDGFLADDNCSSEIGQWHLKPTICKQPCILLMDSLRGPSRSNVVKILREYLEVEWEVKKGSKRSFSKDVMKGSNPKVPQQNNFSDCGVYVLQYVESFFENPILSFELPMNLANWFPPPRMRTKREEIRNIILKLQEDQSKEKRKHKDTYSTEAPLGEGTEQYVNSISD

[5] = biological target: T4, Sentrin-specific protease 6; test: SAR Analysis of small molecule inhibitors of Sentrin-specific protease 6 (SENP6) using a Luminescent assay. [Related pubchem assays (depositor defined):AID2582, AID2599]
Caspase-3 [6] = biological target: T2, Caspase-3; test: SAR Analysis of small molecule inhibitors of Sentrin-specific proteases (SENPs) using a Caspase-3 Selectivity assay. [Related pubchem assays (depositor defined):AID2540, AID2599, AID434973, AID489001]
[7] = biological target: T3, Sentrin-specific protease 7; test: SENP7 protease inhibitors, SAR follow-up, biochemical, luminescence (AID 504497)
[8] = biological target: T1, Sentrin-specific protease 8; test: SENP8 protease inhibitors, SAR follow-up, biochemical, luminescence (AID 504501)

Measured: IC50

Oc1ccccc1-c1nc(/C=C/c2ccc(F)cc2)no1
inactive: [8] > 99 µM
active: [1] 1.64 µM | Caspase-3 [2] 2.55 µM | [3] 1.87 µM | [4] 1.53 µM | [5] 20 µM | Caspase-3 [6] 5.5 µM | [7] 1.6 µM

From ChEMBL document CHEMBL1201862, “PubChem BioAssay data set” (2004)
